Data reported in ChEMBL document CHEMBL1158263, “A New Prenylated Flavone from Artocarpus champeden” (J Nat Prod, 1996).
Values after ≈ are worked out from the molar mass of the structure shown.

Test: Toxicity against Artemia salina
Format: organism-based
Conditions: in vivo

CC(C)=CC1Oc2cc(O)c(O)cc2-c2oc3cc(O)cc(O)c3c(=O)c21 (stereo unspecified) [CYCLOCHAMPEDOL]
LC50: 15.1 µg/mL (≈ 41 µM)
